For this test, the target named is human Factor XIIa (Homo sapiens (Human), UniProt P00748). In words: Factor XIIa Assay. The class given is biochemical. Particulars: purified human Factor XIIa 500 pM; substrate n-Acetyl-Lys-Pro-Arg-AFC 100 μM; pH 7.4; read-out: FXIIa IC50. The method in brief:
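Purified human FXIIa at 500 pM final with 100 μM n-Acetyl-Lys-Pro-Arg-AFC in 50 mM HEPES, 150 mM NaCl, 5 mM CaCl2, 0.1% PEG 8000, pH 7.4, at room temperature or 37° C. Initial fluorogenic hydrolysis rates measured after enzyme–inhibitor equilibration; IC50 taken where Vi=Vo/2.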

Usually IC50 stands for the concentration that gives 50% inhibition.

Chain of human Factor XIIa (P00748 373-615): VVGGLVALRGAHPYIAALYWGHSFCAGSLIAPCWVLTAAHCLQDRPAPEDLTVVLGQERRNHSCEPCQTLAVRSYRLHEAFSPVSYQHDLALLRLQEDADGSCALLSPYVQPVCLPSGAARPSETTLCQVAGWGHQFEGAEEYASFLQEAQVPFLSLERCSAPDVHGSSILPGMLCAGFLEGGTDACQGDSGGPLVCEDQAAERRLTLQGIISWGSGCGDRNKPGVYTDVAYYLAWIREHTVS

For the compound `CC(C)NCCCC[C@@H](NC(C)C)C(=O)N1CCN(C2=N[C@@H](C)[C@H](c3ccccc3)O2)C[C@H]1C(=O)NCc1cccc(Cl)c1` [Example 166, (2S)-1-[N^2,N^6-bis(1-methylethyl)-D-lysyl]-N-(3-chlorobenzyl)-4-[(4S,5S)-4-methyl-5-phenyl-4,5-dihydro-1,3-oxazol-2-yl]piperazine-2-carboxamide], the IC50 came to 6.8 nM.
With `C[C@@H]1N=C(N2CCN(C(=O)[C@H](N)CCCCN3CCCCC3)[C@H](C(=O)NCc3cccc(Cl)c3)C2)O[C@H]1c1cccc(Br)c1` [Example 167, (2S)-4-[(4S,5S)-5-(3-bromophenyl)-4-methyl-4,5-dihydro-1,3-oxazol-2-yl]-N-(3-chlorobenzyl)-1-(6-piperidin-1-yl-D-norleucyl)piperazine-2-carboxamide], the IC50 was determined as 36.1 nM.
Take `CC(C)N[C@H](CCCCN1CCCCC1)C(=O)N1CCN(C2=N[C@@H](C)[C@H](c3cccc(Br)c3)O2)C[C@H]1C(=O)NCc1cccc(Cl)c1` [Example 168, (2S)-4-[(4S,5S)-5-(3-bromophenyl)-4-methyl-4,5-dihydro-1,3-oxazol-2-yl]-N-(3-chlorobenzyl)-1-[N-(1-methylethyl)-6-piperidin-1-yl-D-norleucyl]piperazine-2-carboxamide]: the IC50 came to 8.2 nM.
In the case of `CC(C)N[C@H](CCCCN1CCCCC1)C(=O)N1CCN(C2=NC(C)[C@H](c3cccc(C#N)c3)O2)C[C@H]1C(=O)NCc1cccs1` (stereo partly drawn) [Example 169, (2S)-4[5-(3-cyanophenyl)-4-methyl-4,5-dihydro-1,3-oxazol-2-yl]-1-[N-(1-methylethyl)-6-piperidin-1-yl-D-norleucyl]-N-(thiophen-2-ylmethyl)piperazine-2-carboxamide] it was 12.5 nM; in that of `CC[C@@H](C)N[C@H](CCCCN1CCCCC1)C(=O)N1CCN(C2=N[C@@H](C)[C@H](c3ccccc3)O2)C[C@H]1C(=O)NCc1cccc(Cl)c1` [Example 170, (2S)-N-(3-chlorobenzyl)-4-[(4S,5S)-4-methyl-5-phenyl-4,5-dihydro-1,3-oxazol-2-yl]-1-{N-[(1R)-1-methylpropyl]-6-piperidin-1-yl-D-norleucyl}piperazine-2-carboxamide], 2.5 nM; in that of `CC(C)N[C@H](CCCCN1CCCCC1)C(=O)N1CCN(C2=N[C@@H](C)[C@H](c3ccccc3)O2)C[C@H]1C(=O)NCc1ccc2[nH]cc(Cl)c2c1` [Example 171, (2S)-N-[(3-chloro-1H-indol-5-yl)methyl]-1-[N-(1-methylethyl)-6-piperidin-1-yl-D-norleucyl]-4-[(4S,5S)-4-methyl-5-phenyl-4,5-dihydro-1,3-oxazol-2-yl]piperazine-2-carboxamide], 0.5 nM.
As to `C[C@@H]1N=C(N2CCN(C(=O)[C@@H](CCCCN3CCCCC3)NC3CCC(CN)CC3)[C@H](C(=O)NCc3ccc4[nH]cc(Cl)c4c3)C2)O[C@H]1c1ccccc1` (stereo partly drawn) [Example 172, (2S)-1-{N-[4-(aminomethyl)cyclohexyl]-6-piperidin-1-yl-D-norleucyl}-N-[(3-chloro-1H-indol-5-yl)methyl]-4-[(4S,5S)-4-methyl-5-phenyl-4,5-dihydro-1,3-oxazol-2-yl]piperazine-2-carboxamide], the IC50 is 0.6 nM.
With `CC(C)N[C@H](CCCCN1CCCCC1)C(=O)N1CCN(C2=N[C@@H](C)[C@H](c3ccccc3)O2)C[C@H]1C(=O)NCc1cc2cnccc2s1` [Example 173, (2S)-1-[N-(1-methylethyl)-6-piperidin-1-yl-D-norleucyl]-4-[(4S,5S)-4-methyl-5-phenyl-4,5-dihydro-1,3-oxazol-2-yl]-N-(thieno[3,2-c]pyridin-2-ylmethyl)piperazine-2-carboxamide] the figure was 3.9 nM.
Turning to `C[C@@H]1N=C(N2CCN(C(=O)[C@@H](CCCCN3CCCCC3)NC3CCC(CN)CC3)[C@H](C(=O)NCc3cc4cnccc4s3)C2)O[C@H]1c1ccccc1` (stereo partly drawn) [Example 174, (2S)-1-{N-[4-(aminomethyl)cyclohexyl]-6-piperidin-1-yl-D-norleucyl}-4-[(4S,5S)-4-methyl-5-phenyl-4,5-dihydro-1,3-oxazol-2-yl]-N-(thieno[3,2-c]pyridin-2-ylmethyl)piperazine-2-carboxamide], the IC50 came out at 3 nM.
In the case of `CC(C)N[C@H](CCCCN1CCCCC1)C(=O)N1CCN(C2=N[C@@H](C)[C@H](c3ccccc3)O2)C[C@H]1C(=O)NCc1cccc(Cl)c1` [Example 175, (2S)-N-(3-chlorobenzyl)-1-[N-(1-methylethyl)-6-piperidin-1-yl-D-norleucyl]-4-[(4S,5S)-4-methyl-5-phenyl-4,5-dihydro-1,3-oxazol-2-yl]piperazine-2-carboxamide] it was 6.6 nM; in that of `C[C@@H]1N=C(N2CCN(C(=O)[C@@H](CCCCN3CCCCC3)NC3CCC(CN)CC3)[C@H](C(=O)NCc3cccc(Cl)c3)C2)O[C@H]1c1ccccc1` (stereo partly drawn) [Example 176, (2S)-1-{N-[4-(aminomethyl)cyclohexyl]-6-piperidin-1-yl-D-norleucyl}-N-(3-chlorobenzyl)-4-[(4S,5S)-4-methyl-5-phenyl-4,5-dihydro-1,3-oxazol-2-yl]piperazine-2-carboxamide], 29 nM.
As to `C[C@@H]1N=C(N2CCN(C(=O)[C@@H](CCCCN3CCCCC3)NC3CCC(CN)CC3)[C@H](C(=O)NCc3ccc(C(N)=O)s3)C2)O[C@H]1c1ccccc1` (stereo partly drawn) [Example 177, (2S)-1-{N-[4-(aminomethyl)cyclohexyl]-6-piperidin-1-yl-D-norleucyl}-N-[(5-carbamoylthiophen-2-yl)methyl]-4-[(4S,5S)-4-methyl-5-phenyl-4,5-dihydro-1,3-oxazol-2-yl]piperazine-2-carboxamide], the IC50 came out at 27.9 nM.
In the case of `CC(C)N[C@H](CCCCN1CCCCC1)C(=O)N1CCN(C2=N[C@@H](C)[C@H](c3ccccc3)O2)C[C@H]1C(=O)NCc1cc(CN)cs1` [Example 178, (2S)-N-{[4-(aminomethyl)thiophen-2-yl]methyl}-1-[N-(1-methylethyl)-6-piperidin-1-yl-D-norleucyl]-4-[(4S,5S)-4-methyl-5-phenyl-4,5-dihydro-1,3-oxazol-2-yl]piperazine-2-carboxamide] it was 4.6 nM; in that of `CC(C)N[C@H](CCCCN1CCCCC1)C(=O)N1CCN(C2=N[C@@H](C)[C@H](c3ccccc3)O2)C[C@H]1C(=O)NCc1ccc(CN)c(Cl)c1` [Example 179, (2S)-N-[4-(aminomethyl)-3-chlorobenzyl]-1-[N-(1-methylethyl)-6-piperidin-1-yl-D-norleucyl]-4-[(4S,5S)-4-methyl-5-phenyl-4,5-dihydro-1,3-oxazol-2-yl]piperazine-2-carboxamide], 1.7 nM.
Turning to `CC(C)N[C@H](CCCCN1CCCCC1)C(=O)N1CCN(C2=N[C@@H](C)[C@H](c3ccccc3)O2)C[C@H]1C(=O)NCc1ccc(CN)cc1` [Example 180, (2S)-N-[4-(aminomethyl)benzyl]-1-[N-(1-methylethyl)-6-piperidin-1-yl-D-norleucyl]-4-[(4S,5S)-4-methyl-5-phenyl-4,5-dihydro-1,3-oxazol-2-yl]piperazine-2-carboxamide], the IC50 was determined as 47.1 nM.
In the case of `CC(C)N[C@H](CCCCN1CCCCC1)C(=O)N1CCN(C2=N[C@@H](C)[C@H](c3ccccc3)O2)C[C@H]1C(=O)NCc1cc(F)c(CN)c(F)c1` [Example 181, (2S)-N-[4-(aminomethyl)-3,5-difluorobenzyl]-1-[N-(1-methylethyl)-6-piperidin-1-yl-D-norleucyl]-4-[(4S,5S)-4-methyl-5-phenyl-4,5-dihydro-1,3-oxazol-2-yl]piperazine-2-carboxamide] it was 44.4 nM; in that of `C[C@@H]1N=C(N2CCN(C(=O)[C@@H](CC3CCN(C4CCC(C(N)=O)CC4)CC3)NC3CCC(C(N)=O)CC3)[C@H](C(=O)NCc3cccs3)C2)O[C@H]1c1ccccc1` (stereo partly drawn) [Example 182, (2S)-1-{N-(4-carbamoylcyclohexyl)-3-[1-(4-carbamoylcyclohexyl)piperidin-4-yl]-D-alanyl}-4-[(4S,5S)-4-methyl-5-phenyl-4,5-dihydro-1,3-oxazol-2-yl]-N-(thiophen-2-ylmethyl)piperazine-2-carboxamide], 34.2 nM; in that of `C[C@@H]1N=C(N2CCN(C(=O)[C@@H](CC3CCN(C4CCCCC4)CC3)NC3CCCCC3)[C@H](C(=O)NCc3cccs3)C2)O[C@H]1c1ccccc1` [Example 183, (2S)-[N-cyclohexyl-3-(1-cyclohexylpiperidin-4-yl)-D-alanyl]-4-[(4S,5S)-4-methyl-5-phenyl-4,5-dihydro-1,3-oxazol-2-yl]-N-(thiophen-2-ylmethyl)piperazine-2-carboxamide], 2.4 nM.
